Reference: the NIST ThermoML archive (doi:10.1021/acs.jced.5b00474)

Assay: xn = mol fraction of the nth substance listed
Details: 101 kPa, Liquid; for mass density: Vibrating tube method; for speed of sound: Frequency=3 MHz, Sing-around technique in a fixed-path interferometer

CN1CCCC1=O [N-methylpyrrolidone] + CC#N
Details | mass density [kg/m3] | speed of sound [m/s]
293.15 K, x1 = 0.0997 | 826.597 | –
293.15 K, x1 = 0.2019 | 865.011 | –
293.15 K, x1 = 0.2953 | 895.168 | –
293.15 K, x1 = 0.4033 | 925.343 | –
293.15 K, x1 = 0.4999 | 948.634 | –
293.15 K, x1 = 0.5645 | 962.588 | –
293.15 K, x1 = 0.6971 | 987.869 | –
293.15 K, x1 = 0.7909 | 1002.68 | –
293.15 K, x1 = 0.8906 | 1018.29 | –
293.15 K, x1 = 1 | 1032.25 | –
298.15 K, x1 = 0.0997 | 821.365 | 1311.6
298.15 K, x1 = 0.2019 | 859.919 | 1345.4
298.15 K, x1 = 0.2953 | 890.188 | 1375
298.15 K, x1 = 0.4033 | 920.48 | 1407.6
298.15 K, x1 = 0.4999 | 943.847 | 1434.4
298.15 K, x1 = 0.5645 | 957.857 | 1450.8
298.15 K, x1 = 0.6971 | 983.231 | 1483.7
298.15 K, x1 = 0.7909 | 998.089 | 1503.3
298.15 K, x1 = 0.8906 | 1013.76 | 1524.8
298.15 K, x1 = 1 | 1027.79 | 1544.6
303.15 K, x1 = 0.0997 | 816.101 | 1291.8
303.15 K, x1 = 0.2019 | 854.802 | 1325.7
303.15 K, x1 = 0.2953 | 885.193 | 1355.4
303.15 K, x1 = 0.4033 | 915.6 | 1387.9
303.15 K, x1 = 0.4999 | 939.067 | 1414.8
303.15 K, x1 = 0.5645 | 953.126 | 1430.7
303.15 K, x1 = 0.6971 | 978.597 | 1463.6
303.15 K, x1 = 0.7909 | 993.514 | 1483.2
303.15 K, x1 = 0.8906 | 1009.25 | 1505.1
303.15 K, x1 = 1 | 1023.33 | 1525.3
308.15 K, x1 = 0.0997 | 810.812 | 1272
308.15 K, x1 = 0.2019 | 849.665 | 1306
308.15 K, x1 = 0.2953 | 880.18 | 1335.8
308.15 K, x1 = 0.4033 | 910.709 | 1367.7
308.15 K, x1 = 0.4999 | 934.271 | 1394.8
308.15 K, x1 = 0.5645 | 948.386 | 1410.4
308.15 K, x1 = 0.6971 | 973.957 | 1443.4
308.15 K, x1 = 0.7909 | 988.935 | 1462.8
308.15 K, x1 = 0.8906 | 1004.73 | 1485.2
308.15 K, x1 = 1 | 1018.87 | 1506
313.15 K, x1 = 0.0997 | 805.495 | 1252.2
313.15 K, x1 = 0.2019 | 844.503 | 1286.4
313.15 K, x1 = 0.2953 | 875.146 | 1316.3
313.15 K, x1 = 0.4033 | 905.801 | 1347.6
313.15 K, x1 = 0.4999 | 929.461 | 1374.7
313.15 K, x1 = 0.5645 | 943.637 | 1390.2
313.15 K, x1 = 0.6971 | 969.311 | 1423.3
313.15 K, x1 = 0.7909 | 984.35 | 1442.6
313.15 K, x1 = 0.8906 | 1000.21 | 1465.5
313.15 K, x1 = 1 | 1014.41 | 1486.8
318.15 K, x1 = 0.0997 | 800.149 | 1232.4
318.15 K, x1 = 0.2019 | 839.318 | 1266.8
318.15 K, x1 = 0.2953 | 870.091 | 1296.9
318.15 K, x1 = 0.4999 | 924.64 | 1354.8
318.15 K, x1 = 0.7909 | 979.759 | 1422.4
318.15 K, x1 = 0.8906 | 995.681 | 1445.9
318.15 K, x1 = 1 | 1009.95 | 1467.8
318.16 K, x1 = 0.4033 | 900.875 | 1327.4
318.16 K, x1 = 0.5645 | 938.874 | 1370.2
318.16 K, x1 = 0.6971 | 964.657 | 1403.3
323.15 K, x1 = 0.4033 | 895.938 | 1307.5
323.16 K, x1 = 0.0997 | 794.775 | 1212.6
323.16 K, x1 = 0.2019 | 834.109 | 1247.3
323.16 K, x1 = 0.2953 | 865.017 | 1277.6
323.16 K, x1 = 0.4999 | 919.805 | 1335
323.16 K, x1 = 0.5645 | 934.1 | 1350.3
323.16 K, x1 = 0.6971 | 959.996 | 1383.4
323.16 K, x1 = 0.7909 | 975.164 | 1402.4
323.16 K, x1 = 0.8906 | 991.156 | 1426.5
323.16 K, x1 = 1 | 1005.48 | 1448.9
